The test system of this assay is BT-474 cancer cells. The assay is described as follows: Inhibitory activity against proliferation of BT-474 cancer cells (CellTiter-Glo). It counts as cell-based. The note with it: Homo sapiens, BT-474 ErbB2-overexpressing cancer cells, 120 hours after treatment. The protocol:
To evaluate the inhibitory activity of a compound according to the present invention against the proliferation of ErbB2-overexpressing cancer cells, the following experiment were performed.
10% FBS-added McCOY'S 5A was used for SK-BR-3 cancer cells. 20% FBS-added RPMI-1640 was used for BT-474 cancer cells. Transduced Ba/F3 cells were cultured in a RPMI-1640 medium to which 1 μg/ml puromycin (Invitrogen) was added.
48 hours before compound treatment, each type of the SK-BR-3 and BT-474 cells were seeded at 5,000 cells/well in a white clear bottom 96 well plate (Corning). The compound was diluted in dimethyl sulfoxide (SK-BR-3: 3-fold dilution, a total of 12 concentrations, BT-474: […], a total of 12 concentrations) and injected at 1 μl to have the final concentration of 0.2 nM to 5 μM. As for measurement of live cells, 120 hours after treatment with the compound, a CellTiter-Glo luminescent cell-viability reagent (Promega) was used to store the cells at room temperature for 10 minutes, followed by measurement of luminescence using a reader (SynergyNeo, Biotek). Each test was repeated three times.
The result values were calculated as a cell growth rate (%) compared to the control group. A graph was plotted using the GraphPad Prism version 8.3.0 program, and GI50 values were calculated.
For orientation: Cellular ATP, detected with luciferase, serves as a proxy for viable cell number.

The term GI50 denotes the concentration at which growth is held to half of that of the control. With `C=CC(=O)Nc1cc(Nc2cc(N3OCC[C@@H]3c3cc(F)cc(-c4cccc(F)c4)c3)ncn2)c(OC)cc1N1CCC(N2CCN(C3CC3)CC2)CC1` [Example 248, (R)-N-(2-(4-(4-cyclopropylpiper-azin-1-yl)piperidin-1-yl)-5-((6-(3-(3′,5-difluoro-[1,1′-biphenyl]-3-yl)-isoxazolidin-2-yl)-pyrimidin-4-yl)-amino)-4-methoxy-phenyl)acrylamide], the GI50 was below 50 nM.

Turning to `C=CC(=O)Nc1cc(Nc2cc(N3OCC[C@@H]3c3cccc(-c4cccc(C(N)=O)c4)c3)ncn2)c(OC)cc1N1CCN(C)CC1` [Example 325, (R)-3′-(2-(6-((5-acrylamido-2-methoxy-4-(4-methylpiperazin-1-yl)phenyl)-amino)pyrimidin-4-yl)isoxazolidin-3-yl)-[1,1′-biphen-yl]-3-carboxamide], the GI50 is below 50 nM.

Take `C=CC(=O)Nc1cc(Nc2cc(N3OCC[C@@H]3c3cccc(-c4cccc(F)c4F)c3)ncn2)c(OC)cc1N1CCN(C)[C@@H](C)C1` [Example 326, N-(5-((6-((R)-3-(2′,3′-difluoro-[1,1′-biphenyl]-3-yl)isoxazolidin-2-yl)pyrimidin-4-yl)amino)-2-((S)-3,4-dimethylpiper-azin-1-yl)-4-meth-oxyphenyl)acryl-amide]: the 50% growth inhibitory concentration (GI50) is below 50 nM.

Take `C=CC(=O)Nc1cc(Nc2cc(N3OCC[C@@H]3c3cccc(-c4ccc(F)cc4F)c3)ncn2)c(OC)cc1N1CCN(C)[C@@H](C)C1` [Example 327, N-(5-((6-((R)-3-(2′,4′-difluoro-[1,1′-biphenyl]-3-yl)-isoxazolidin-2-yl)-pyrimidin-4-yl)-amino)-2-((S)-3,4-dimethylpiperazin-1-yl)-4-methoxy-phenyl)acrylamide]: the GI50 was below 50 nM.

Turning to `C=CC(=O)Nc1cc(Nc2cc(N3OCC[C@@H]3c3cccc(-c4cccc(F)c4)c3)ncn2)c(OC)cc1N1C[C@@H](C)N(C(=O)OC(C)(C)C)[C@@H](C)C1` [Example 328, tert-butyl (2S,6R)-4-(2-acrylamido-4-((6-((R)-3-(3′-fluoro-[1,1′-biphen-yl]-3-yl)isoxazol-idin-2-yl)pyrim-idin-4-yl)amino)-5-methoxyphenyl)-2,6-dimethylpiper-azine-1-carboxylate], the GI50 is 50 to 500 nM.

In the case of `C=CC(=O)Nc1cc(Nc2cc(N3OCC[C@@H]3c3cccc(-c4cccc(F)c4)c3)ncn2)c(OC)cc1N1C[C@@H](C)N[C@@H](C)C1` [Example 329, N-(2-((3S,5R)-3,5-dimethyl-piperazin-1-yl)-5-((6-((R)-3-(3′-fluoro-[1,1′-bi-phenyl]-3-yl)-isoxazolidin-2-yl)pyrimidin-4-yl)amino)-4-meth-oxyphenyl)acryl-amide], the concentration for 50% growth inhibition (GI50) was below 50 nM.

In the case of `C=CC(=O)Nc1cc(Nc2cc(N3OCC[C@@H]3c3cccc(-c4cccc(C#N)c4)c3)ncn2)c(OC)cc1N1CCN(C)CC1` [Example 330, (R)-N-(5-((6-(3-(3′-cyano-[1,1′-biphenyl]-3-yl)-isoxazolidin-2-yl)-pyrimidin-4-yl)-amino)-4-methoxy-2-(4-methylpiper-azin-1-yl)phenyl)-acrylamide], the GI50 is below 50 nM.

On to `C=CC(=O)Nc1cc(Nc2cc(N3OCC[C@@H]3c3cccc(-c4ccc(OC)nc4)c3)ncn2)c(OC)cc1N1CCN(C)[C@@H](C)C1` [Example 331, N-(2-((S)-3,4-dimethylpiperazin-1-yl)-4-methoxy-5-((6-((R)-3-(3-(6-methoxypyridin-3-yl)phenyl)isoxazol-idin-2-yl)pyrim-idin-4-yl)amino)-phenyl)acrylamide], for which the GI50 was below 50 nM.

Take `C=CC(=O)Nc1cc(Nc2cc(N3OCC[C@@H]3c3cccc(-c4ccc(C(F)(F)F)cc4)c3)ncn2)c(OC)cc1N1CCN(C)CC1` [Example 332, (R)-N-(4-methoxy-2-(4-methylpiper-azin-1-yl)-5-((6-(3-(4′-(trifluoro-methyl)-[1,1′-bi-phenyl]-3-yl)-isoxazolidin-2-yl)-pyrimidin-4-yl)-amino)phenyl)-acrylamide]: the 50% growth inhibitory concentration (GI50) was in the range of 50 to 500 nM.

Take `C=CC(=O)Nc1cc(Nc2cc(N3OCC[C@@H]3c3cccc(-c4ccc(C#N)cc4)c3)ncn2)c(OC)cc1N1CCN(C)CC1` [Example 333, (R)-N-(5-((6-(3-(4′-cyano-[1,1′-biphenyl]-3-yl)-isoxazolidin-2-yl)-pyrimidin-4-yl)-amino)-4-methoxy-2-(4-methylpiper-azin-1-yl)phenyl)-acrylamide]: the GI50 is below 50 nM.

Regarding `C=CC(=O)Nc1cc(Nc2cc(N3OCC[C@@H]3c3cccc(C(=O)Nc4ccccc4)c3)ncn2)c(OC)cc1N1CCN(C)CC1` [Example 334, (R)-3-(2-(6-((5-acrylamido-2-meth-oxy-4-(4-methyl-piperazin-1-yl)-phenyl)amino)pyr-imidin-4-yl)isox-azolidin-3-yl)-N-phenylbenzamide], the concentration for 50% growth inhibition (GI50) is below 50 nM.

Take `COc1cc(F)c(NC(=O)/C=C/CN(C)C)cc1Nc1cc(N2OCC[C@@H]2c2cccc(-c3cccc(F)c3)c2)ncn1` [Example 335, (R,E)-4-(dimethyl-amino)-N-(2-fluoro-5-((6-(3-(3′-fluoro-[1,1′-biphen-yl]-3-yl)isoxazol-idin-2-yl)pyrim-idin-4-yl)amino)-4-methoxyphen-yl)but-2-enamide]: the 50% growth inhibitory concentration (GI50) was below 50 nM.

Regarding `C=CC(=O)Nc1cc(Nc2cc(N3OCC[C@@H]3c3cccc(-c4cccc(F)c4)c3)ncn2)c(OC)cc1N1CCN(CCO)CC1` [Example 336, (R)-N-(5-((6-(3-(3′-fluoro-[1,1′-biphenyl]-3-yl)-isoxazolidin-2-yl)-pyrimidin-4-yl)-amino)-2-(4-(2-hydroxyethyl)-piperazin-1-yl)-4-methoxyphenyl)-acrylamide], the GI50 is below 50 nM.

Consider `C=CC(=O)Nc1cc(Nc2cc(N3OCC[C@@H]3c3cccc(-c4cccc(C)c4C)c3)ncn2)c(OC)cc1N1CCN(C)CC1` [Example 337, (R)-N-(5-((6-(3-(2′,3′-dimethyl-[1,1′-biphenyl]-3-yl)isoxazolidin-2-yl)pyrimidin-4-yl)-amino)-4-methoxy-2-(4-methylpiper-azin-1-yl)phenyl)-acrylamide], for which the 50% growth inhibitory concentration (GI50) is below 50 nM.

As to `C=CC(=O)Nc1cc(Nc2cc(N3OCC[C@@H]3c3cccc(-c4cccc(C(=O)OC)c4)c3)ncn2)c(OC)cc1N1CCN(C)CC1` [Example 338, methyl (R)-3′-(2-(6-((5-acrylamido-2-methoxy-4-(4-methylpiperazin-1-yl)phenyl)-amino)pyrimidin-4-yl)isoxazolidin-3-yl)-[1,1′-biphen-yl]-3-carboxylate], the 50% growth inhibitory concentration (GI50) was below 50 nM.

On to `C=CC(=O)Nc1cc(Nc2cc(N3OCC[C@@H]3c3cccc(-c4cccc(F)c4)c3)ncn2)c(OC)cc1N1CCC2(CC1)COC2` [Example 339, (R)-N-(5-((6-(3-(3′-fluoro-[1,1′-biphenyl]-3-yl)-isoxazolidin-2-yl)-pyrimidin-4-yl)-amino)-4-methoxy-2-(2-oxa-7-azas-piro[3.5]nonan-7-yl)phenyl)acryl-amide], for which the concentration for 50% growth inhibition (GI50) is below 50 nM.

As to `C=CC(=O)Nc1cc(Nc2cc(N3OCC[C@@H]3c3cccc(-c4cccc(F)c4F)c3)ncn2)c(OC)cc1N1CCN(C2COC2)CC1` [Example 340, (R)-N-(5-((6-(3-(2′,3′-difluoro-[1,1′-biphenyl]-3-yl)isoxazolidin-2-yl)pyrimidin-4-yl)-amino)-4-methoxy-2-(4-(oxetan-3-yl)-piperazin-1-yl)-phenyl)acrylamide], the concentration for 50% growth inhibition (GI50) was below 50 nM.

Source of the values: patent US20240262815A1, “HETEROARYL DERIVATIVE, METHOD FOR PREPARING SAME, AND PHARMACEUTICAL COMPOSITION COMPRISING SAME AS ACTIVE INGREDIENT” (VORONOI INC., priority 2021, published 2024).
